Data published in US9492554B2, “Methods and compositions related to viral inhibition” (Clemson University Research Foundation (CURF), priority 2009, dated 2016).

Assays:
TAR RNA = test: UV melting of TAR RNA in presence of ligands (Tm, ΔTm); type: binding, HIV-1; settings: for ΔTm: Melting point stabilization of HIV-TAR RNA by Neo Neo dimers, Table 11
Method: The reactions were done in the presence of 10 mM sodium cacodylate, 0.5 mM EDTA, 0.1 mM MgCl2 pH 7.0. The heating rate was 0.3° C./min.
UV melting studies of TAR were performed in the presence and absence of various ligands (FIG. 13).

HIV-1 TAR RNA = HIV-1 TAR RNA competition FRET binding assay (Tat peptide probe); settings: 100 nM TAR RNA, 100 nM Tat peptide, 25° C., 60 min
Method: Before used, HIV-1 TAR RNA (5′-GGC AGA UCUGAG CCU GGG AGC UCU CUG CC-3′, Thermo Scientific) in 10 μM batch in sterile water was heated to 95° C. for 4.5 min, and then cooled rapidly in ice bath for 5 min. This snap-cooling causes the RNA to adopt the kinetically favored hairpin rather than thermodynamically favored duplexes.
The relative affinity of each polyamine for HIV-1 TAR RNA was determined using Fluorescence Resonance Energy Transfer (FRET)-based competitive binding assay with a fluorescein-labeled HIV-1 Tat peptide as described in the literature. The fluorescence experiments were performed with a Spectra Max Fluorimeter (Molecular Devices) at 25° C., with excitation and emission wavelengths of 495 and 570 nm, respectively. All samples were prepared in 96 well plates in 1×TK buffer (50 mM Tris, 20 mM KCl, pH=7.4) with 0.1% Trixton-100 (Sigma).
To a solution of 100 nM HIV-1 TAR RNA and 100 nM fluorescein-labeled HIV-1 Tat peptide, appropriate concentrations (0 nM to 100 μM) of the antagonists were added at 25° C.; total volume of the incubation solution was 80 μL. After 60 min, fluorescence changes of the sample solution were determined by the Spectra Max Fluorimeter Detector.

HIVNL4-3 in MT-2 cells [1] = test: HIV antigen synthesis in treated cells, immunofluorescence assay (IFA); type: cell-based; settings: for percentage of cells positive for HIV antigens, Day 2: MT-2 cells, microM: DPA119 24, DPA52 25, DPA53 9, DPA54 17, DPA55 4, DPA56 8, DPA121 25, virus control 15%; for percentage of cells positive for HIV antigens, Day 4 / percentage of cells positive for HIV antigens, Day 6: same concentrations, virus control 100%
Method: (§1) Anti-HIV activities can be routinely checked by measuring the percentage of cells positive for HIV antigens using immunofluorescence assay (IFA) and for the release of pelletable reverse transcriptase (RT) into the supernatant. For these assays, 500,000 MT-2 cells in 1 ml of media were added to the wells of a 24 well tissue culture plate. Next, 0.5 ml of 4× concentrated compound was added to triplicate wells of the plate. The cells and compounds were incubated for 1 hr at 37 C. Finally, 0.5 ml of HIVNL4-3, produced in H9 cells (a CD4+ lymphoblastoid cell line), 100,000 cpm of RT activity per well, was added to each well. Virus control wells contained no compounds. This inoculum is at a multiplicity of infection less than 1. On days 2, 4, and 6, 0.75 mls of supernatants were removed and placed into individual microfuge tubes for RT assay. Next, cells were resuspended in the media and 0.5 mls of the total remaining volume was removed for IFA. Cells were combined from their triplicate infections, pelleted, and the enriched cells were air-dried onto glass slides. The dried cells were fixed in acetonemethanol (50:50). After fixing, cells were stained with HIV immunoglobulin, washed in PBS, and counter-stained with FITC-conjugated goat and human IgG. Slides were washed in PBS and the percentage of HIV-positive cells was determined by epifluorescence (Robinson et al. J Acquire Immune Defic Syndr 2:33-42, 1989).

HIVNL4-3 in MT-2 cells [2] = test: Release of reverse transcriptase into the culture supernatant; type: cell-based, HIV; settings: for Release of reverse transcriptase into the culture supernatant, Day 2: mean of triplicate infections (SD), microM: DPA119 24, DPA52 25, DPA53 9, DPA54 17, DPA55 4, DPA56 8, DPA121 25, virus control 46,029; for Release of reverse transcriptase into the culture supernatant, Day 4 / Release of reverse transcriptase into the culture supernatant, Day 6: mean of triplicate infections; for Release of reverse transcriptase into the culture supernatant, Day 4: virus control 928,112; for Release of reverse transcriptase into the culture supernatant, Day 6: virus control 1,078,741
Text: as §1, with “The disclosed conjugates also reduce the amount of reverse transcriptase (RT) released into the cell culture supernatant upon in vitro cell culture experiments (Table 14 below). […] It is possible that even though the cells are positive for HIV, they are making much fewer unspliced transcripts, and thus the virion release into the media remains suppressed. […] Anti-HIV” for “Anti-HIV”, “On days 2, 4, and 6, 0.75 mls of supernatants were removed and placed into individual microfuge tubes for RT assay.” left out, “[…] The supernatants from each well were precipitated at 4 C overnight in a solution including 30% polyethylene glycol. After precipitation, precipitate was lysed in a solution containing Triton X100, Tris buffer, and DTT. RT activity of each aliquot was determined as incorporation of 3H-dTTP into a poly rA-oligo dT template. After a one hour assay at 37 C, the incorporated dTTP was precipitated onto a ZetaProbe (BioRad) membrane. Slots were excised and placed into liquid scintillation cocktail. After overnight incubation, counts per minute for each sample was determined on a beta counter. Results were calculated as cpm/ml of original culture supernatant (Robinson et al.” for “J Acquire Immune Defic Syndr 2:33-42, 1989).”

Row | Compound | IC50 (HIV-1 TAR RNA; Table 18) [µM] | 5% Toxicity microM (cells) [µM] | percentage of cells positive for HIV antigens, Day 2 (HIVNL4-3 in MT-2 cells [1]) | percentage of cells positive for HIV antigens, Day 4 (HIVNL4-3 in MT-2 cells [1]) [%] | percentage of cells positive for HIV antigens, Day 6 (HIVNL4-3 in MT-2 cells [1]) [%] | Release of reverse transcriptase into the culture supernatant, Day 2 (HIVNL4-3 in MT-2 cells [2]) | Release of reverse transcriptase into the culture supernatant, Day 4 (HIVNL4-3 in MT-2 cells [2]) | Release of reverse transcriptase into the culture supernatant, Day 6 (HIVNL4-3 in MT-2 cells [2]) | further results
1 | NCC1O[C@H](OC2C(N)C[C@@H](N)C(O)[C@H]2O[C@@H]2O[C@H](Cn3cc(COCCCCCCCCOCc4cn(C[C@H]5O[C@@H](O[C@H]6C(O[C@H]7OC(CN)C(O)[C@H](O)C7N)C(N)C[C@@H](N)C6O)[C@@H](O)C5O[C@H]5O[C@@H](CN)C(O)C(O)C5N)nn4)nn3)C(O[C@H]3O[C@@H](CN)C(O)C(O)C3N)[C@@H]2O)C(N)[C@@H](O)C1O (some centres unmarked) [DPA 58] | – | – | – | – | – | – | – | – | ΔTm (TAR RNA): 5.4 °C; IC50 (HIV-1 TAR RNA; Table 17): 0.061 ± 0.013 µM
2 | NC[C@@H]1O[C@H](O[C@H]2[C@@H](O)[C@H](O[C@@H]3[C@@H](O)[C@H](N)C[C@H](N)[C@H]3O[C@H]3O[C@H](CO)[C@@H](O)[C@H](O)[C@H]3N)O[C@@H]2CO)[C@H](N)[C@@H](O)[C@@H]1O [DPA 502, paromomycin, reference compound] | 11.4 ± 3.3 | – | – | – | – | – | – | – | –
3 | NCC1O[C@H](OC2C(N)C[C@@H](N)C(O)[C@H]2O[C@@H]2O[C@H](Cn3cc(COCCCCCCCCCCCCOCc4cn(C[C@H]5O[C@@H](O[C@H]6C(O[C@H]7OC(CN)C(O)[C@H](O)C7N)C(N)C[C@@H](N)C6O)[C@@H](O)C5O[C@H]5O[C@@H](CN)C(O)C(O)C5N)nn4)nn3)C(O[C@H]3O[C@@H](CN)C(O)C(O)C3N)[C@@H]2O)C(N)[C@@H](O)C1O (some centres unmarked) [DPA 60] | – | – | – | – | – | – | – | – | ΔTm (TAR RNA): 3.24 °C; IC50 (HIV-1 TAR RNA; Table 17): 0.067 ± 0.009 µM
4 | NCC1O[C@H](OC2C(N)C[C@@H](N)C(O)[C@H]2O[C@@H]2O[C@H](Cn3cc(CCCCc4cn(C[C@H]5O[C@@H](O[C@H]6C(O[C@H]7OC(CN)C(O)[C@H](O)C7N)C(N)C[C@@H](N)C6O)[C@@H](O)C5O[C@H]5O[C@@H](CN)C(O)C(O)C5N)nn4)nn3)C(O[C@H]3O[C@@H](CN)C(O)C(O)C3N)[C@@H]2O)C(N)[C@@H](O)C1O (some centres unmarked) [DPA 54] | – | 69 | 3-5% | 80 | 100 | 14,805 (1,309) cpm/ml | 165,301 cpm/ml | 427,475 cpm/ml | –
5 | NCC1O[C@H](OC2C(N)C[C@@H](N)C(O)[C@H]2O[C@@H]2O[C@H](Cn3cc(CCCc4cn(C[C@H]5O[C@@H](O[C@H]6C(O[C@H]7OC(CN)C(O)[C@H](O)C7N)C(N)C[C@@H](N)C6O)[C@@H](O)C5O[C@H]5O[C@@H](CN)C(O)C(O)C5N)nn4)nn3)C(O[C@H]3O[C@@H](CN)C(O)C(O)C3N)[C@@H]2O)C(N)[C@@H](O)C1O (some centres unmarked) [DPA 52] | – | >138 | 15% | 100 | 100 | 21,485 (4,574) cpm/ml | 347,845 cpm/ml | 268,357 cpm/ml | –
6 | CN1CCN(c2ccc3nc(-c4ccc(OCc5cn(CCCCCCn6cc(CCCCc7cn(C[C@H]8OC(OC9C(O)[C@H](N)CC(N)[C@H]9O[C@H]9OC(CN)[C@@H](O)C(O)C9N)C(O)C8O[C@H]8OC(CN)[C@@H](O)C(O)C8N)nn7)nn6)nn5)cc4)[nH]c3c2)CC1 (some centres unmarked) [DPA115] | – | – | – | – | – | – | – | – | ΔTm (° C.) (TAR RNA; TAR RNA with ligand vs control, Table 10): 4.1 °C; Tm (° C.) (TAR RNA; TAR RNA with ligand, control without ligand 69.3): 73.4 °C; IC50 (HIV-1 TAR RNA; Table 17): 99.4 ± 21 µM
7 | C/C(CCc1cn(C[C@H]2O[C@@H](O[C@H]3C(O[C@H]4OC(CN)C(O)[C@H](O)C4N)C(N)C[C@@H](N)C3O)[C@@H](O)C2O[C@H]2O[C@@H](CN)C(O)C(O)C2N)nn1)=C(/C)CCc1cn(C[C@H]2O[C@@H](O[C@H]3C(O[C@H]4OC(CN)C(O)[C@H](O)C4N)C(N)C[C@@H](N)C3O)[C@@H](O)C2O[C@H]2O[C@@H](CN)C(O)C(O)C2N)nn1 (some centres unmarked) [DPA 55] | – | 8 | 3-5% | 30 | 100 | 20,072 (3,748) cpm/ml | 107,933 cpm/ml | 305,277 cpm/ml | –
8 | NCC1O[C@H](OC2C(N)C[C@@H](N)C(O)[C@H]2O[C@@H]2O[C@H](Cn3cc(-c4ccc(-c5cn(C[C@H]6O[C@@H](O[C@H]7C(O[C@H]8OC(CN)C(O)[C@H](O)C8N)C(N)C[C@@H](N)C7O)[C@@H](O)C6O[C@H]6O[C@@H](CN)C(O)C(O)C6N)nn5)cc4)nn3)C(O[C@H]3O[C@@H](CN)C(O)C(O)C3N)[C@@H]2O)C(N)[C@@H](O)C1O (some centres unmarked) [DPA 53] | – | 17 | 2% | 40 | 100 | 8,880 (1,373) cpm/ml | 45,539 cpm/ml | 221,445 cpm/ml | –
9 | NC[C@H]1O[C@H](O[C@H]2[C@H](O)[C@@H](O[C@H]3O[C@H](CO)[C@@H](O)[C@H](N)[C@H]3O)[C@H](N)C[C@@H]2N)[C@H](O)[C@@H](O)[C@@H]1O [DPA 503, kanamycin, reference compound] | 95.4 ± 20.4 | – | – | – | – | – | – | – | –
10 | lividomycin [DPA 507, reference compound] | 92.5 ± 21.9 | – | – | – | – | – | – | – | –
11 | CN[C@@H]1C[C@H](N)[C@@H](O)[C@H](OC2O[C@H](CO)[C@H](O)[C@@H]3OC4(O[C@H](C(N)CO)[C@H](O)[C@H](O)[C@H]4O)O[C@@H]23)[C@H]1O (some centres unmarked) [DPA 504, hygromycin, reference compound] | > 500 | – | – | – | – | – | – | – | –
12 | ribostamycin [DPA 508, reference compound] | 146 ± 38 | – | – | – | – | – | – | – | –
13 | NCC1O[C@H](OC2C(N)C[C@@H](N)C(O)[C@H]2O[C@@H]2O[C@H](Cn3cc(CCCCCCc4cn(C[C@H]5O[C@@H](O[C@H]6C(O[C@H]7OC(CN)C(O)[C@H](O)C7N)C(N)C[C@@H](N)C6O)[C@@H](O)C5O[C@H]5O[C@@H](CN)C(O)C(O)C5N)nn4)nn3)C(O[C@H]3O[C@@H](CN)C(O)C(O)C3N)[C@@H]2O)C(N)[C@@H](O)C1O (some centres unmarked) [DPA 56] | – | 34 | 5-7% | 40 | 100 | 15,989 (2,523) cpm/ml | 105,704 cpm/ml | 412,475 cpm/ml | –
